Test results from US20110319415A1, “Susceptibility to HSP90-Inhibitors” (Universit+e,uml a+ee t zu K+e,uml o+ee ln, priority 2008, published 2011).
“And” between values parts separate entries of the source, which are not always exact repeats. Equal entries are not always repeated. “Also recorded” adds a separate entry of the source.

Tests used:
NSCLC cell lines = experiment: High-throughput cell-based screening of the NSCLC cell line collection (CellTiter-Glo viability); conditions: for sensitivity pattern (cytotoxic activity) across the NSCLC cell line collection: cellular viability after 96 h, cellular ATP content, entire NSCLC cell line panel
[1] = system: KRAS-driven lung adenocarcinomas
Protocol: FIG. 20. […] Note that the images were taken from the earlier publications for illustration purposes only.
Transgenic mice (as described in FIG. 20) with KRAS-mutant lung tumors were treated with the HSP90 inhibitor 17-DMAG for seven days. Tumor volumes were determined by magnetic resonance imaging and shown as transthoracic images (left panels), quantified and changes in tumor volume relative to the pre-therapy images are given in percent.
These mice carry a Lox-Stop-Lox-KRAS_G12D gene. […] Mice received 20 mg/kg/d of 17-DMAG, a geldanamycin HSP90 inhibitor with almost identical structure as 17-AAG.

c-RAF = experiment: Immunoblot of lysates of cell lines treated with 17-AAG: c-RAF; assay type: cell-based, human; conditions: sensitive (KRAS-mutant) cell lines
Text: (§1) (A) Distribution of KRAS mutations (black columns) across the 17-AAG-sensitivity profile (IC50 values) in the NSCLC cell line collection and the NCI-60 cell line panel. Incidence of KRAS mutation and sensitivity towards 17-AAG is represented by a Fisher's exact test for both datasets. (B) Lysates of a KRAS wildtype (wt) and a KRAS mutated (G12C) cell line treated with 17AAG at different concentrations were immunoblotted for c-RAF, KRAS, cyclinD1 and Akt. (C) Distribution of copy number gain at 1q21.3 (black columns) across the UO126-sensitivity profile (IC50 values) in the NSCLC cell line collection and the hypothemycin-sensitivity profile in the NCI-60 cell line panel. Incidence of amplification of 1q21.3 mutation and sensitivity towards 17-AAG is represented by a Fisher's exact test for both datasets. […]
(§2) Whole-cell lysates were prepared in NP40 lysis buffer (50 mmol/L Tris-HCl (pH 7.4). 150 mmol/L NaCl, 1% NP40) supplemented with protease and phosphatase inhibitor I and II cocktails (www.merckbiosciences.co.uk/g.asp?f=CBC/home.html) and clarified by centrifugation. Protein concentrations were determined using the Bicinchoninic Acid Protein Assay kit (www.piercenet.com) and equivalent amounts (40-60 μg) were subjected to SDS-PAGE on 12% gels, except where indicated. […]

Akt = experiment: Immunoblot of lysates of cell lines treated with 17-AAG: Akt; assay type: cell-based, human; conditions: sensitive (KRAS-mutant) cell lines
Text: as §1, §2

KRAS = experiment: Immunoblot of lysates of cell lines treated with 17-AAG: KRAS; assay type: cell-based, human; conditions: sensitive (KRAS-mutant) cell lines
Text: as §1, §2

[2] = system: mutant KRAS bound to Hsp90; experiment: Depletion of mutant KRAS from the Hsp90 complex; assay type: cell-based; conditions: treatment with HSP90 inhibitor
[3] = system: mutant EGFR bound to Hsp90; experiment: Depletion of mutant EGFR from the Hsp90 complex; assay type: cell-based; conditions: same conditions as for KRAS
[4] = system: Ba/F3 cells expressing erlotinib-sensitizing mutations of EGFR together with T790M; experiment: Growth inhibition / cytotoxicity in Ba/F3 cells expressing mutant EGFR with T790M; assay type: cell-based, Murine; conditions: Ba/F3 with sensitizing EGFR mutation plus T790M, 96 h, cellular ATP content
Protocol: Compounds were then added in serial dilutions.
EGFR_cDNA was subcloned into pBabe-hygro vectors.

C#Cc1cccc(Nc2ncnc3cc(OCCOC)c(OCCOC)cc23)c1 [erlotinib]
sensitivity pattern (cytotoxic activity) across the NSCLC cell line collection (NSCLC cell lines): pronounced cytotoxic activity in a small subset of cell lines

N#CC(=C(/N)Sc1ccccc1N)/C(C#N)=C(\N)Sc1ccccc1N [U0126]
sensitivity pattern (cytotoxic activity) across the NSCLC cell line collection (NSCLC cell lines): enhanced activity in a subset of the lung cancer cell line collection

CO[C@H]1/C=C\C=C(/C)C(=O)NC2=CC(=O)C(NCCN(C)C)=C(C[C@@H](C)C[C@H](OC)[C@H](O)[C@@H](C)/C=C(\C)[C@@H]1OC(N)=O)C2=O [17-DMAG, 17-NN-Dimethyl Ethylene Diamine-Geldanamycin]
tumor burden of the third mouse ([1]; 20 mg/kg/d, one week of treatment, MRI imaging): slight but insignificant reduction of tumor burden
mice showing tumor regression ([1]; 20 mg/kg/d, one week of treatment, MRI imaging, lox-stop-lox KRAS_G12D mice): 2 of 3 and 3 of 4
duration of responses ([1]; lung tumor-bearing lox-stop-lox KRAS_G12D mice, one-week treatment): transient
biological effects in the cell lines compared with 17-AAG (NSCLC cell lines; in vitro, data not shown): identical

C=CCNC1=C2C[C@@H](C)C[C@H](OC)[C@H](O)[C@@H](C)/C=C(\C)[C@H](OC(N)=O)[C@@H](OC)/C=C\C=C(/C)C(=O)NC(=CC1=O)C2=O [17-AAG, [(3S,5S,6R,7S,8E,10R,11S,12E,14E)-21-(allylamino)-6-hydroxy-5,11-dimethoxy-3,7,9,15-tetramethyl-16,20,22-trioxo-17-azabicyclo[16.3.1]docosa-8,12,14,18,21-pentaen-10-yl]carbamate]
c-RAF protein levels after treatment (c-RAF): modulated; also recorded: reduced protein levels
Akt protein levels after treatment (Akt): modulated; also recorded: reduced protein levels
KRAS protein levels after treatment (KRAS): not modulated
depletion of mutant KRAS from the Hsp90 complex [2]: not depleted from the complex
depletion of mutant EGFR from the Hsp90 complex [3]: depleted from the complex
sensitivity pattern (cytotoxic activity) across the NSCLC cell line collection (NSCLC cell lines): active in most of the cell lines with only a minority being resistant

COc1cc2c(Nc3ccc(Br)cc3F)ncnc2cc1OCC1CCN(C)CC1 [vandetanib]
activity / cytotoxicity in Ba/F3 cells expressing the T790M resistance allele [4]: completely resistant
activity / cytotoxicity in Ba/F3 cells expressing the T790M resistance allele ([4]; listed as Vandatinib): lack of activity
sensitivity pattern (cytotoxic activity) across the NSCLC cell line collection (NSCLC cell lines): pronounced cytotoxic activity in a small subset of cell lines

Cc1cc(Nc2cc(N3CCN(C)CC3)nc(Sc3ccc(NC(=O)C4CC4)cc3)n2)n[nH]1 [VX-680]
sensitivity pattern (cytotoxic activity) across the NSCLC cell line collection (NSCLC cell lines): pronounced cytotoxic activity in a small subset of cell lines
